Laboratory results as given in the NIST ThermoML archive (doi:10.1016/j.jct.2007.04.005).

Experiment: xn = mol fraction of the nth substance listed
Conditions: 318.15 K, Liquid

CCCCCCCCC [nonane] + C1CCCCC1
Conditions | mass density [kg/m3]
100 kPa, x2 = 0 | 698.2
100 kPa, x2 = 0.09303 | 701
100 kPa, x2 = 0.2009 | 704.8
100 kPa, x2 = 0.3051 | 708.8
100 kPa, x2 = 0.417 | 713.5
100 kPa, x2 = 0.512 | 718
100 kPa, x2 = 0.5996 | 722.8
100 kPa, x2 = 0.7052 | 729.3
100 kPa, x2 = 0.7993 | 736.2
100 kPa, x2 = 0.9039 | 744.9
101 kPa, x2 = 0 | 698.48
101 kPa, x2 = 0.1022 | 701.67
101 kPa, x2 = 0.1548 | 703.43
101 kPa, x2 = 0.2009 | 705.04
101 kPa, x2 = 0.2591 | 707.2
101 kPa, x2 = 0.3306 | 710.05
101 kPa, x2 = 0.4003 | 713.04
101 kPa, x2 = 0.4596 | 715.79
101 kPa, x2 = 0.5321 | 719.42
101 kPa, x2 = 0.612 | 723.86
101 kPa, x2 = 0.6649 | 727.05
101 kPa, x2 = 0.7224 | 730.84
101 kPa, x2 = 0.8047 | 736.83
101 kPa, x2 = 0.8686 | 742.07
101 kPa, x2 = 0.9405 | 748.72
2130 kPa, x2 = 0 | 699.9
2130 kPa, x2 = 0.09303 | 702.7
2130 kPa, x2 = 0.2009 | 706.5
2130 kPa, x2 = 0.3051 | 710.6
2130 kPa, x2 = 0.417 | 715.2
2130 kPa, x2 = 0.512 | 719.8
2130 kPa, x2 = 0.5996 | 724.6
2130 kPa, x2 = 0.7052 | 731.1
2130 kPa, x2 = 0.7993 | 738
2130 kPa, x2 = 0.9039 | 746.7
4150 kPa, x2 = 0 | 701.8
4150 kPa, x2 = 0.09303 | 704.7
4150 kPa, x2 = 0.2009 | 708.4
4150 kPa, x2 = 0.3051 | 712.5
4150 kPa, x2 = 0.417 | 717.2
4150 kPa, x2 = 0.512 | 721.7
4150 kPa, x2 = 0.5996 | 726.6
4150 kPa, x2 = 0.7052 | 733.1
4150 kPa, x2 = 0.7993 | 740
4150 kPa, x2 = 0.9039 | 748.7
6180 kPa, x2 = 0 | 703.6
6180 kPa, x2 = 0.09303 | 706.4
6180 kPa, x2 = 0.2009 | 710.2
6180 kPa, x2 = 0.3051 | 714.3
6180 kPa, x2 = 0.417 | 719
6180 kPa, x2 = 0.512 | 723.6
6180 kPa, x2 = 0.5996 | 728.4
6180 kPa, x2 = 0.7052 | 734.9
6180 kPa, x2 = 0.7993 | 741.8
6180 kPa, x2 = 0.9039 | 750.6
8210 kPa, x2 = 0 | 705.3
8210 kPa, x2 = 0.09303 | 708.2
8210 kPa, x2 = 0.2009 | 712
8210 kPa, x2 = 0.3051 | 716.1
8210 kPa, x2 = 0.417 | 720.7
8210 kPa, x2 = 0.512 | 725.3
8210 kPa, x2 = 0.5996 | 730.2
8210 kPa, x2 = 0.7052 | 736.7
8210 kPa, x2 = 0.7993 | 743.6
8210 kPa, x2 = 0.9039 | 752.4
10230 kPa, x2 = 0 | 707
10230 kPa, x2 = 0.09303 | 709.9
10230 kPa, x2 = 0.2009 | 713.7
10230 kPa, x2 = 0.3051 | 717.8
10230 kPa, x2 = 0.417 | 722.5
10230 kPa, x2 = 0.512 | 727
10230 kPa, x2 = 0.5996 | 731.9
10230 kPa, x2 = 0.7052 | 738.5
10230 kPa, x2 = 0.7993 | 745.4
10230 kPa, x2 = 0.9039 | 754.2
11250 kPa, x2 = 0 | 707.8
11250 kPa, x2 = 0.09303 | 710.7
11250 kPa, x2 = 0.2009 | 714.5
11250 kPa, x2 = 0.3051 | 718.6
11250 kPa, x2 = 0.417 | 723.3
11250 kPa, x2 = 0.512 | 727.9
11250 kPa, x2 = 0.5996 | 732.8
11250 kPa, x2 = 0.7052 | 739.4
11250 kPa, x2 = 0.7993 | 746.3
11250 kPa, x2 = 0.9039 | 755.1
12260 kPa, x2 = 0 | 708.6
12260 kPa, x2 = 0.09303 | 711.6
12260 kPa, x2 = 0.2009 | 715.4
12260 kPa, x2 = 0.3051 | 719.5
12260 kPa, x2 = 0.417 | 724.2
12260 kPa, x2 = 0.512 | 728.8
12260 kPa, x2 = 0.5996 | 733.7
12260 kPa, x2 = 0.7052 | 740.3
12260 kPa, x2 = 0.7993 | 747.1
12260 kPa, x2 = 0.9039 | 756
14290 kPa, x2 = 0 | 710.3
14290 kPa, x2 = 0.09303 | 713.2
14290 kPa, x2 = 0.2009 | 717
14290 kPa, x2 = 0.3051 | 721.1
14290 kPa, x2 = 0.417 | 725.8
14290 kPa, x2 = 0.512 | 730.4
14290 kPa, x2 = 0.5996 | 735.3
14290 kPa, x2 = 0.7052 | 741.9
14290 kPa, x2 = 0.7993 | 748.9
14290 kPa, x2 = 0.9039 | 757.7
16310 kPa, x2 = 0 | 711.9
16310 kPa, x2 = 0.09303 | 714.8
16310 kPa, x2 = 0.2009 | 718.7
16310 kPa, x2 = 0.3051 | 722.7
16310 kPa, x2 = 0.417 | 727.5
16310 kPa, x2 = 0.512 | 732
16310 kPa, x2 = 0.5996 | 737
16310 kPa, x2 = 0.7052 | 743.6
16310 kPa, x2 = 0.7993 | 750.5
16310 kPa, x2 = 0.9039 | 759.4
18340 kPa, x2 = 0 | 713.5
18340 kPa, x2 = 0.09303 | 716.4
18340 kPa, x2 = 0.2009 | 720.2
18340 kPa, x2 = 0.3051 | 724.3
18340 kPa, x2 = 0.417 | 729.1
18340 kPa, x2 = 0.512 | 733.6
18340 kPa, x2 = 0.5996 | 738.6
